The results in this text go back to patent publication US8551984B2, “Aminopyrimidines as SYK inhibitors” (Merck Sharp & Dohme Corp., priority 2009, dated 2013).

Molecules are shown by their SMILES. Where only a bound is given, the exact number is not on record here.

In one test the target is recombinant human SYK (GST-hSYK fusion protein) (Homo sapiens, UniProt P43405). Nature of the test: biochemical. To be noted: hSYK Activity, table after Example 66.
Source text: Homogeneous Time-Resolved Fluorescence (HTRF) Assay for the Recombinant Human SYK Enzyme:
The IC50 is the concentration that inhibits the measured activity by half. For the compound `CC(=O)NC1(c2ncc(-c3cc(C)cc(Nc4nccc(C(F)(F)F)n4)c3)s2)COC1` [66-1], the IC50 is below 100 nM.

Staying with this test, now noted: rhSYK Activity (IC50), recombinant human GST-SYK 5 pM, ATP 25 μM, biotinylated substrate peptide 250 nM, HTRF, 10-dose titration.
On to `CC(=O)Nc1cc(Nc2nccc(OC3CCN(C(=O)OC(C)(C)C)CC3)n2)cc(-c2cnc(C3(O)CCC3)s2)c1` [109(1), tert-butyl 4-[2-({3-(acetylamino)-5-[2-(1-hydroxycyclobutyl)-1,3-thiazol-5-yl]phenylamino)pyrimidin-4-yl]oxy}piperidine-1-carboxylate], for which the IC50 was 100 to 1000 nM. As to `CC(=O)Nc1cc(Nc2nccc(OC3CCNCC3)n2)cc(-c2cnc(C3(O)CCC3)s2)c1` [109(2), N-(3-[2-(1-hydroxycyclobutyl)-1,3-thiazol-5-yl]-5-{[4-(piperidin-4-yloxy)pyrimidin-2-yl]-amino}phenyl)acetamide], the IC50 is below 100 nM. Consider `Cc1cc(Nc2nccc(C3CC3)n2)cc(-c2cnc([C@]3(O)CC[C@@H](C(=O)O)CC3)s2)c1` [110(1), Cis-4-(5-(3-[(4-cyclopropylpyrimidin-2-yl)amino]-5-methylphenyl)-1,3-thiazol-2-yl)-4-hydroxycyclohexanecarboxylic acid], for which the IC50 was below 100 nM.

The same test, now with this note: rhSYK Activity, Table 54B.
Consider `Cc1cc(Nc2nccc(C(F)(F)F)n2)cc(-c2cnc(C3(O)CCNC3)s2)c1` (centres unmarked) [54B-5], for which the IC50 was below 100 nM.

Consider `Cc1cc(Nc2nccc(C(F)(F)F)n2)cc(-c2cnc(C3(O)CCN(S(N)(=O)=O)C3)s2)c1` (centres unmarked) [54B-6], for which the concentration for half-maximal inhibition (IC50) is below 100 nM. As to `Cc1cc(Nc2nccc(C(F)(F)F)n2)cc(-c2cnc(C3(O)CCN(S(=O)(=O)NC(=O)OC(C)(C)C)C3)s2)c1` (centres unmarked) [54B-9], the IC50 is below 100 nM. On to `COc1ccnc(Nc2cc(C)cc(-c3cnc(C4(O)CCN(C(N)=O)C4)s3)c2)n1` (centres unmarked) [54B-10], for which the IC50 was below 100 nM. Regarding `COc1ccnc(Nc2cc(C)cc(-c3cnc(C4(O)CCNC4)s3)c2)n1` (centres unmarked) [54B-11], the IC50 was below 100 nM. Take `Cc1cc(Nc2nccc(C)n2)cc(-c2cnc(C3(O)CCNC3)s2)c1` (centres unmarked) [54B-12]: the IC50 is below 100 nM.

As for `Cc1cc(Nc2nccc(C)n2)cc(-c2cnc(C3(O)CCN(C(N)=O)C3)s2)c1` (centres unmarked) [54B-13], the IC50 was below 100 nM. Still for that read-out and setting: the same measure for `Cc1cc(Nc2nccc(C(F)(F)F)n2)cc(-c2cnc(C3(O)CCN(CCO)C3)s2)c1` (centres unmarked) [54B-19]: below 100 nM; for `Cc1cc(Nc2nccc(C(F)(F)F)n2)cc(-c2cnc(C3(O)CCN(CC(N)=O)C3)s2)c1` (centres unmarked) [54B-20]: below 100 nM.

Consider `Cc1cc(Nc2nccc(C(F)(F)F)n2)cc(-c2cnc(C3(O)CCN(C(=O)CO)C3)s2)c1` (centres unmarked) [54B-21], for which the IC50 was below 100 nM.

`Cc1cc(Nc2nccc(C(F)(F)F)n2)cc(-c2cnc(C3(O)CCN(CC(=O)O)C3)s2)c1` (centres unmarked) [54B-22]: the IC50 was below 100 nM.

In the case of `Cc1cc(Nc2nccc(C(F)(F)F)n2)cc(-c2cnc(C3(O)CCN(C(=O)C(N)=O)C3)s2)c1` (centres unmarked) [54B-23], the IC50 was below 100 nM. Consider `COC(=O)CN1CCC(O)(c2ncc(-c3cc(C)cc(Nc4nccc(C(F)(F)F)n4)c3)s2)C1` (centres unmarked) [54B-24], for which the IC50 is below 100 nM. In the case of `Cc1cc(Nc2nccc(C(F)(F)F)n2)cc(-c2cnc(C3(O)CCN(C(=O)C(=O)O)C3)s2)c1` (centres unmarked) [54B-25], the IC50 was below 100 nM. For `Cc1cc(Nc2nccc(C(F)(F)F)n2)cc(-c2cnc(C3(O)CCN(C(=O)CC(N)=O)C3)s2)c1` (centres unmarked) [54B-26], the concentration for half-maximal inhibition (IC50) was below 100 nM. With `COC(=O)C(=O)N1CCC(O)(c2ncc(-c3cc(C)cc(Nc4nccc(C(F)(F)F)n4)c3)s2)C1` (centres unmarked) [54B-27], the IC50 is below 100 nM. Take `Cc1cc(Nc2nccc(C(F)(F)F)n2)cc(-c2cnc(C3(O)CCN(C(=O)C(O)CO)C3)s2)c1` (centres unmarked) [54B-28]: the IC50 was below 100 nM. In the case of `Cc1cc(Nc2nccc(C(F)(F)F)n2)cc(-c2cnc(C3(O)CCN(C(=O)c4ccno4)C3)s2)c1` (centres unmarked) [54B-29], the IC50 was below 100 nM.

As for `Cc1cc(Nc2nccc(C(F)(F)F)n2)cc(-c2cnc(C3(O)CCN(C(=O)C4(O)CCC4)C3)s2)c1` (centres unmarked) [54B-30], the half-inhibitory concentration (IC50) was below 100 nM.

For the compound `Cc1cc(Nc2nccc(C(F)(F)F)n2)cc(-c2cnc(C3(O)CCN(C4CCC(C(=O)O)C4)C3)s2)c1` (centres unmarked) [54B-32], the IC50 was below 100 nM. The same measure, in the same setting: the same measure for `COC(=O)C1CCC(N2CCC(O)(c3ncc(-c4cc(C)cc(Nc5nccc(C(F)(F)F)n5)c4)s3)C2)C1` (centres unmarked) [54B-34]: below 100 nM; for `COC(=O)c1cccc(N2CCC(O)(c3ncc(-c4cc(C)cc(Nc5nccc(C(F)(F)F)n5)c4)s3)C2)c1` (centres unmarked) [54B-35]: 100 to 1000 nM; for `Cc1cc(Nc2nccc(C(F)(F)F)n2)cc(-c2cnc(C3(O)CC(C(=O)O)N(C(N)=O)C3)s2)c1` (centres unmarked) [54B-36]: below 100 nM. Consider `COC(=O)C1CC(O)(c2ncc(-c3cc(C)cc(Nc4nccc(C(F)(F)F)n4)c3)s2)CN1C(N)=O` (centres unmarked) [54B-37], for which the IC50 was below 100 nM.

Staying with this test, now noted: rhSYK Activity, Table 54C.
With `OC1(c2ncc(-c3cccc(Nc4nccc(C(F)(F)F)n4)c3)s2)CCNC1` (centres unmarked) [54C-1], the IC50 is below 100 nM.

The same test, now with this note: rhSYK Activity, Table 61A.
`Cc1cc(Nc2nccc(C(F)(F)F)n2)cc(-c2cnc(C(NS(C)(=O)=O)(C3CC3)C3CC3)s2)c1` [61A-1]: the IC50 is below 100 nM. In the case of `Cc1cc(Nc2nccc(C(F)(F)F)n2)cc(-c2cnc(C(N[S+]([O-])C(C)(C)C)(C3CC3)C3CC3)s2)c1` (centres unmarked) [61A-2], the IC50 was in the range of 100 to 1000 nM. As to `Cc1cc(Nc2nccc(C(F)(F)F)n2)cc(-c2cnc(C(C)(C)N)s2)c1` [61A-3], the IC50 is below 100 nM. Take `Cc1cc(Nc2nccc(C(F)(F)F)n2)cc(-c2cnc(C(C)(C)NS(C)(=O)=O)s2)c1` [61A-4]: the IC50 is below 100 nM.

Staying with this test, now noted: rhSYK Activity, Table 65.
As to `Cc1cc(Nc2nccc(C(F)(F)F)n2)cc(-c2cnc(C3(NC(=O)NC(N)=O)COC3)s2)c1` [65-1], the IC50 was below 100 nM.

With `COc1ccnc(Nc2cc(C)cc(-c3cnc(C4(NC(=O)NC(N)=O)CCC4)s3)c2)n1` [65-2], the IC50 was below 100 nM. Regarding `Cc1cc(Nc2ncccn2)cc(-c2cnc(C3(NC(=O)NC(N)=O)CCC3)s2)c1` [65-3], the IC50 was below 100 nM. Turning to `Cc1cc(Nc2nccc(C3CC3)n2)cc(-c2cnc(C3(NC(=O)NC(N)=O)CCC3)s2)c1` [65-4], the IC50 was below 100 nM. Turning to `Cc1cc(Nc2nccc(C(F)(F)F)n2)cc(-c2cnc(C3(NC(=O)NC(N)=O)CCNC(=O)CC3)s2)c1` (centres unmarked) [65-6], the half-inhibitory concentration (IC50) is below 100 nM. On to `Cc1cc(Nc2ncc(Cl)c(C(F)(F)F)n2)cc(-c2cnc(C3(NC(=O)NC(N)=O)CCNC(=O)CC3)s2)c1` (centres unmarked) [65-7], for which the IC50 is below 100 nM.

For the compound `COc1nc(Nc2cc(C)cc(-c3cnc(C4(NC(=O)NC(N)=O)CCC4)s3)c2)ncc1Cl` [65-8], the IC50 was below 100 nM.

The same test, now with this note: rhSYK Activity, Table 74A.
As to `Cc1cc(Nc2nccc(C(F)(F)F)n2)cc(-c2cnc(C(C)(C)S(N)(=O)=O)s2)c1` [74A-1], the IC50 is below 100 nM.

For the compound `CC(C)(c1ncc(-c2cccc(Nc3nccc(C(F)(F)F)n3)c2)s1)S(C)(=O)=O` [74A-2], the concentration for half-maximal inhibition (IC50) is below 100 nM. On the same count and under the same terms, the same measure for `CC(C)(c1ncc(-c2cccc(Nc3nccc(C(F)(F)F)n3)c2)s1)S(N)(=O)=O` [74A-3]: below 100 nM. Turning to `COc1ccnc(Nc2cc(C)cc(-c3cnc(C(C)(C)S(N)(=O)=O)s3)c2)n1` [74A-4], the IC50 is below 100 nM. On the same count and under the same terms, the same measure for `Cc1cc(Nc2ncc(F)c(C)n2)cc(-c2cnc(C(C)(C)S(N)(=O)=O)s2)c1` [74A-5]: below 100 nM; for `Cc1cc(Nc2ncc(F)c(C3CC3)n2)cc(-c2cnc(C(C)(C)S(N)(=O)=O)s2)c1` [74A-6]: below 100 nM.

Consider `COc1nc(Nc2cc(C)cc(-c3cnc(C(C)(C)S(N)(=O)=O)s3)c2)ncc1Cl` [74A-7], for which the IC50 was below 100 nM. Same read-out and setting: the same measure for `COc1nc(Nc2cc(C)cc(-c3cnc(C(C)(C)S(N)(=O)=O)s3)c2)ncc1F` [74A-8]: below 100 nM. Regarding `Cc1cc(Nc2ncc(Cl)c(C)n2)cc(-c2cnc(C(C)(C)S(N)(=O)=O)s2)c1` [74A-9], the IC50 is below 100 nM. Same read-out and setting: the same measure for `CC(C)(c1ncc(-c2cc(Nc3nccc(C(F)(F)F)n3)cc(C(F)F)c2)s1)S(N)(=O)=O` [74A-11]: below 100 nM. Turning to `Cc1cc(Nc2nccc(C)n2)cc(-c2cnc(C(C)(C)S(N)(=O)=O)s2)c1` [74A-12], the IC50 was below 100 nM. On to `Cc1cc(Nc2nccc(C3CC3)n2)cc(-c2cnc(C(C)(C)S(N)(=O)=O)s2)c1` [74A-13], for which the IC50 is below 100 nM. Regarding `COC(=O)CNS(=O)(=O)C(C)(C)c1ncc(-c2cc(C)cc(Nc3nccc(C(F)(F)F)n3)c2)s1` [74A-14], the IC50 was below 100 nM.

As for `Cc1cc(Nc2nccc(C(F)(F)F)n2)cc(-c2cnc(C(C)(C)S(=O)(=O)NCC(=O)O)s2)c1` [74A-15], the IC50 is below 100 nM.

Staying with this test, now noted: rhSYK Activity, Table 116A.
Turning to `Cc1cc(Nc2nc(C)cc(C)n2)cc(-c2cnc([C@]3(O)CC[C@@H](O)CC3)s2)c1` [116A-1], the IC50 fell in the range of 1000 to 10000 nM. In the case of `Cc1cc(Nc2ncc(F)c(C)n2)cc(-c2cnc([C@]3(O)CC[C@@H](C(=O)O)CC3)s2)c1` [116A-2], the IC50 was below 100 nM. On the same count and under the same terms, the same measure for `Cc1cc(Nc2nccc(C(C)C)n2)cc(-c2cnc([C@]3(O)CC[C@@H](C(=O)O)CC3)s2)c1` [116A-3]: below 100 nM; for `Cc1cc(Nc2ncc(Cl)c(C)n2)cc(-c2cnc([C@]3(O)CC[C@@H](C(=O)O)CC3)s2)c1` [116A-4]: below 100 nM; for `COc1nc(Nc2cc(C)cc(-c3cnc([C@]4(O)CC[C@@H](C(=O)O)CC4)s3)c2)ncc1F` [116A-5]: below 100 nM.

Regarding `Cc1cc(Nc2nccc(C(C)(C)C)n2)cc(-c2cnc([C@]3(O)CC[C@@H](C(=O)O)CC3)s2)c1` [116A-6], the IC50 is below 100 nM. As for `Cc1cc(Nc2nccc(OC(C)C)n2)cc(-c2cnc(C3(O)CCC(C(=O)O)CC3)s2)c1` (centres unmarked) [116A-7], the IC50 is below 100 nM. With `COc1nc(Nc2cc(C)cc(-c3cnc(C4(O)CCC(C(=O)O)CC4)s3)c2)ncc1Cl` (centres unmarked) [116A-8], the IC50 is below 100 nM. As for `Cc1cc(Nc2nccc(C(C)F)n2)cc(-c2cnc(C3(O)CCC(C(=O)OC(C)(C)C)CC3)s2)c1` (centres unmarked) [116A-10], the IC50 is below 100 nM. Still for that read-out and setting: the same measure for `COc1nc(Nc2cc(C)cc(-c3cnc(C4(O)CCC(C(=O)OC(C)(C)C)CC4)s3)c2)ncc1F` (centres unmarked) [116A-11]: 100 to 1000 nM.

Staying with this test, now noted: rhSYK Activity, table after Example 69.
As for `Cc1cc(Nc2nccc(C(=O)N3CCOCC3)n2)cc(-c2cnc(C(C)(O)C(F)(F)F)s2)c1` (centres unmarked) [69-1], the IC50 is 100 to 1000 nM.
